From patent US12503687B2, “Therapeutic bacteriophage compositions” (priority 2017, dated 2025)
Values joined by “and” are separate entries in the source; they are usually repeats but may differ in a detail not shown here. Equal entries are not always repeated.

Tested on: Staphylococcus aureus strain UNT144-3
Assay: S. aureus pneumonia model (neutropenic murine lung infection)
Type: in vivo, mice
Conditions: 100 mg/kg SC at 2 and 6 hrs post-infection; CFU assessed 24 hr
Procedure: The sensitivity of two S. aureus clinical isolates, UNT109-3 (NRS234, native valve endocarditis) and UNT144-3, that have been previously utilized in animal models of infection, was evaluated vs. the individual phage and the 4-phage panel. […] The virulence of the two strains was then evaluated in the murine lung infection model. Female Hsd:ICR(CD-1) mice (Harlan Laboratories, Houston, TX) were administered 150 and 100 mg/kg cyclophosphamide on day −4 and day −1 prior to infection to render them neutropenic. Groups of 5 mice were then anaesthetized by intraperitoneal (IP) injection of 0.15 mL of a mixture of ketamine HCl (100 mg/kg body weight) plus xylazine (10 mg/kg body weight). Once anaesthetized, mice were infected intranasally by placing drops on the external nares and allowing inhalation of the 50 μl inoculum. Twenty-four hours after infection, mice were euthanized by CO2 inhalation and lungs processed for bacterial titers. Bacterial counts were enumerated on Brain Heart Infusion agar (Difco™ Laboratories)+0.5% activated charcoal (Sigma-Aldrich) plates for ease of recovering and detecting S. aureus (Barr, J. G., et al., J. Clin. Pathol. (1987) 40:372-376). […]
Three phage panel treatment groups were evaluated for efficacy: 2×10^10 PFU/mL per phage, 2×10^9 PFU/mL per phage, and 2×10^8 PFU/mL per phage. […]

Compound: CN[C@H](CC(C)C)C(=O)N[C@H]1C(=O)N[C@@H](CC(N)=O)C(=O)N[C@H]2C(=O)N[C@H]3C(=O)N[C@H](C(=O)N[C@H](C(=O)O)c4cc(O)cc(O)c4-c4cc3ccc4O)[C@H](O)c3ccc(c(Cl)c3)Oc3cc2cc(c3O[C@@H]2O[C@H](CO)[C@@H](O)[C@H](O)[C@H]2O[C@H]2C[C@](C)(N)[C@H](O)[C@H](C)O2)Oc2ccc(cc2Cl)[C@H]1O [Vancomycin]
- Mean ± SD log10 CFU/Lung Pair: 5.55 log10 CFU/Lung Pair and 5.55 ± 1.1 log10 CFU/Lung Pair
